One may read the IC50 as the midpoint of a concentration-inhibition curve.

The target of one assay is T1, HEG1-KRIT1 interaction (Homo sapiens, UniProt O00522).
T1 construct: His6-EGFP-KRIT1 (WT) FERM domain (417-736) and KRIT1 (L717,721A) mutant were cloned into pETM-11; His6 (N); made in house; host or cells: E. coli BL21 Star (DE3)
T1 sequence (O00522 417-736): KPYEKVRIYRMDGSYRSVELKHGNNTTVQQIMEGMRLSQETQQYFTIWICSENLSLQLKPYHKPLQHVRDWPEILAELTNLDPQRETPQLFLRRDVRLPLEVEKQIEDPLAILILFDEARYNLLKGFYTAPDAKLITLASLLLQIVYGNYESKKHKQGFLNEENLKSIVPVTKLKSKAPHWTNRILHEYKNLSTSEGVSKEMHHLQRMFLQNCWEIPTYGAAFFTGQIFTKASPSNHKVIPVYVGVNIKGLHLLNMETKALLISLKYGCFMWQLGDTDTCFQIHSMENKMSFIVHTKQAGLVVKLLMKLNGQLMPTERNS
Description: Flow cytometry assay for the HEG1-KRIT1 FERM domain interaction (competition binding on HEG1 matrix beads). The conditions noted are these: Table 2; flow cytometry-screening assay; NI = no inhibition detected up to 500 μM. As to the method:
Bead Coupling. SPHERO Neutravidin Polystyrene Particles, […] (Spherotech) were washed twice with wash buffer (20 mM Tris, 150 mM NaCl. pH 7.4 containing 0.01% NP-40, and 1 mM EDTA). Prior to incubation with biotin-tagged HEG 1 cytoplasmic tail protein, an appropriate volume of bead slurry was passivated to inhibit non-specific binding by incubation for 30 minutes at room temperature in reaction buffer containing 0.1% BSA (20 mM Tris, 150 mM NaCl, pH 7.4 0.01% NP-40, 1 mM EDTA, 1 mM DTT, and 0.1% BSA). Passivated beads were collected by centrifugation, resuspended to 3,600 particles/μl in reaction buffer and biotinylated HEG1 tail was added to a final concentration of 150 nM and incubated overnight on a rotator at 4° C. The beads were washed three times by centrifugation with ice-cold reaction buffer to remove unbound HEG1 peptide. Beads were diluted such that a final concentration of 2000 beads/μL were available for addition to assay plates.
Flow cytometry assay. A final volume of 100 μl containing 140 nM EGFP-KRIT1 FERM domain, with 10% DMSO or 10% compounds in DMSO, was incubated for 15 minutes at room temperature on a rotator. 100 μl of beads were added to the mixture for a final volume of 200 μl at 1,000 particles/μl with 70 nM EGFP-KRIT1 and incubated for 15 minutes at room temperature on a rotator. The control beads were: without KRIT1 (minimum signal); with KRIT1 (maximum signal); and with KRIT1 plus 2 μM HEG1 7-mer (positive blocking control). The EGFP fluorescence was measured using a BD Accuri flow cytometer. For screening purposes, the final volume of the reaction was scaled down to 10 μl and samples were processed as previously described (27). For FIGS. 1D-1F, 2B, and 3E, a representative experiment is shown of at the least 3 independent repeats.
Assay plate assembly. Plate assays were performed in 384-well microtiter plates (Greiner Bio-one, #784101). Reaction buffer. HEG1-coupled beads, and EGFP-KRIT-FERM constructs were added using a MultiFlo™ Microplate Dispenser (BioTek Instruments, Inc.). Compounds were added to single-point assay plates pre-loaded with reaction buffer using a Biomek^NX liquid handler (BeckmanCoulter) equipped with a […] pintool (V & P Scientific, Inc.). Compound libraries were dispensed to a final concentration of 10 μM. An equal volume (10 nL) of DMSO was added to the vehicle control wells. Following the addition of library compounds, 5 μL of assay buffer was added and the plates were mixed before addition of 5 μL of the protein-coupled bead mixtures; Plates were protected from light and incubated on a rotator for 15 minutes at room temperature. Binding of EGFP-KRIT to HEG1 coupled beads was evaluated using an Accuri C6 flow cytometer.
Data Acquisition. Assay plates were sampled using the HyperCyt™ high throughput flow cytometry platform (Intellicyt; Albuquerque, N. Mex.). During sampling, the probe moves from well to well and samples 1-2 μL from each well pausing 0.4 sec in the air before sampling the next well. The resulting sample stream consisting of 384 separated samples is delivered to an Accuri C6 flow cytometer (BD Biosciences; San Jose, Calif.). Plate data are acquired as time-resolved files that are parsed by software-based well identification algorithms and merged with compound library files. Plate performance was validated using the Z-prime calculation (28).
Compounds that satisfied hit selection criteria in the primary screen were cherry-picked from compound storage plates and tested to confirm activity and determine potency. Dose response data points were fitted by Prism software (GraphPad Software Inc., San Diego, Calif.) using nonlinear least-squares regression in a sigmoidal dose-response model with variable slope, also known as the 4-parameter logistic equation.
For orientation: A flow cytometer gives signals particle by particle.
In the case of `Oc1ccc2ccccc2c1/C=N/c1cccnc1` [BL-0551, (E)-1-((pyridin-3-ylimino)methyl)naphthalen-2-ol], the “IC50 (μM)” value is given as “precipitation”.

The assay is the same for the next values; noted with them: Table 2; flow cytometry-screening assay; NI = no inhibition detected up to 500 μM; read-out: IC50.
Turning to `O=Cc1c(O)ccc2cc(Cl)ccc12` [BL-702 (Hki10), 6-chloro-2-hydroxy-1-naphthaldehyde], the half-inhibitory concentration (IC50) was 3.2 µM.

For the compound `CC(NC(=O)c1ccccc1N)c1ccccc1` (centres unmarked) [Compound 4, 2-amino-N-(1-phenylethyl)benzamide], the IC50 was more than 500 µM. With `O=C(O)c1ccccc1CCc1c(O)ccc2ccccc12` [BL-0606, 2-(2-(2-hydroxynaphthalen-1-yl)ethyl)benzoic acid], the half-inhibitory concentration (IC50) is more than 500 µM.

For `O=Cc1cc(-c2ccccc2)ccc1O` [BL-0628 (HKi4), 4-Hydroxy-[1,1′-biphenyl]-3-carbaldehyde], the IC50 came to 21.8 µM.

In the case of `CC(O)c1c(O)ccc2ccccc12` (centres unmarked) [BL-0713, 1-(1-hydroxyethyl)naphthalen-2-ol], the IC50 was more than 500 µM. On to `CCCCc1ccc2c(C=O)c(O)ccc2c1` [BL-0743, 6-Butyl-2-hydroxy-1-naphthaldehyde], for which the IC50 was 78.8 µM. Consider `Oc1ccc2c(/C=N/c3ccccc3)c(O)ccc2c1` [BL-0661 (HKi7), 1-((phenylimino)methyl)naphthalene-2,6-diol], for which the concentration for half-maximal inhibition (IC50) stood at 32 µM.

On to `NCc1c(O)ccc2ccccc12` [BL-0592, 1-(aminomethyl)naphthalen-2-ol], for which the IC50 was more than 500 µM. For the compound `O=C(O)c1ccccc1NCc1c(O)ccc2ccccc12` [BL-0588, 2-(((2-hydroxynaphthalen-1-yl)methyl)amino)benzoic acid], the half-maximal inhibitory concentration (IC50) was more than 500 µM. For the compound `Oc1ccc2ccccc2c1/C=N/c1nn[nH]n1` [BL-0549, (E)-1-(((1H-tetrazol-5-yl)imino)methyl)naphthalen-2-ol], the IC50 is 3.2 µM.

For the compound `COc1cccc2ccc(O)c(C=O)c12` [BL-0691, 2-hydroxy-8-methoxy-1-naphthaldehyde], the IC50 is 18 µM. The same measure, in the same setting: the result for `O=C(O)c1ccccc1NC(=O)c1c(O)ccc2ccccc12` [BL-0590, 2-(2-hydroxy-1-naphthamido)benzoic acid] reads more than 500 µM. Consider `CC(N)c1ccccc1N` (centres unmarked) [Compound 5, 2-(1-aminoethyl)aniline], for which the 50% inhibitory concentration (IC50) was more than 500 µM. As for `O=C(O)c1ccccc1/N=C/c1c(O)ccc2ccccc12` [BL-0547 (Hki3), (E)-2-(((2-hydroxynaphthalen-1-yl)methylene)amino)benzoic acid], the IC50 amounted to 2.9 µM. As for `CCc1ccc2c(C=O)c(O)ccc2c1` [BL-0740, 6-Ethyl-2-hydroxy-1-naphthaldehyde], the half-maximal inhibitory concentration (IC50) came to 3.9 µM. Consider `CCOc1ccc2c(C=O)c(O)ccc2c1` [BL-0794, 6-Ethoxy-2-hydroxy-1-naphthaldehyde], for which the IC50 worked out at 4.6 µM. Consider `OCC(CO)c1c(O)ccc2ccccc12` [BL-703, 2-(2-hydroxynaphthalen-1-yl)propane-1,3-diol], for which the half-inhibitory concentration (IC50) was more than 500 µM. As for `CC(=O)c1ccc2c(C=O)c(O)ccc2c1` [BL-0700 (HKi9), 6-acetyl-2-hydroxy-1-naphthaldehyde], the IC50 was found to be 58.6 µM. Take `O=Cc1ccccc1O` [Compound 16, Salicylaldehyde]: the 50% inhibitory concentration (IC50) is more than 500 µM. With `Cc1ccc2c(C=O)c(O)ccc2c1` [BL-0666 (HKi8), 2-hydroxy-6-methyl-1-naphthaldehyde], the half-inhibitory concentration (IC50) was determined as 5.1 µM. Turning to `Oc1ccc2ccccc2c1C(O)C(F)(F)F` (centres unmarked) [BL-706, 1-(2,2,2-Trifluoro-1-hydroxyethyl)naphthalen-2-ol], the IC50 is more than 500 µM.

For the compound `CC#Cc1ccc2c(C=O)c(O)ccc2c1` [BL-0817, 2-Hydroxy-6-(prop-1-yn-1-yl)-1-naphthaldehyde], the 50% inhibitory concentration (IC50) was determined as 15 µM. Take `CSc1c(O)ccc2ccccc12` [BL-707, 1-(methylthio)naphthalen-2-ol]: the IC50 is more than 500 µM. For `O=C(O)c1ccc(/N=C/c2c(O)ccc3ccccc23)cc1` [BL-0552, (E)-4-(((2-hydroxynaphthalen-1-yl)methylene)amino)benzoic acid], the IC50 is 1.8 µM.

Still in this assay, the particulars now being: inhibition of the HEG1-KRIT1 interaction, flow cytometry assay.
Turning to `O=Cc1ccccc1O` [Compound 16, Salicylaldehyde], the IC50 entry is given as “did not exhibit detectable activity”.

The values are drawn from patent publication US20220304958A1, “SMALL MOLECULE INHIBITORS OF A PROTEIN COMPLEX” (THE REGENTS OF THE UNIVERSITY OF CALIFORNIA, priority 2019, published 2022).
